Results: patent US6043217A, “Amide derivative of amythiamicin” (Zaidan Hojin Biseibutsu Kagaku Kenyu Kai, priority 1996, dated 2000)

Experiments:
Type in all cases: cell-based
Salmonella typhi T-63 = assay: MIC, standard serial dilution method; conditions: Muller-Hinton agar medium, 37° C.
Escherichia coli NIHJ = assay: MIC, standard serial dilution method; conditions: Muller-Hinton agar medium, 37° C.
[1] = test system: Staphylococcus aureus No. 5 (MRSA); assay: MIC, standard serial dilution method; conditions: Muller-Hinton agar medium, 37° C.
[2] = test system: Staphylococcus aureus MS 16526; assay: MIC, standard serial dilution method; conditions: Muller-Hinton agar medium, 37° C.
[3] = test system: Staphylococcus aureus Smith; assay: MIC, standard serial dilution method; conditions: Muller-Hinton agar medium, 37° C.
[4] = test system: Staphylococcus aureus FDA 209P; assay: MIC, standard serial dilution method; conditions: Muller-Hinton agar medium, 37° C.
[5] = test system: Providencia rettgeri GN 466; assay: MIC, standard serial dilution method; conditions: Muller-Hinton agar medium, 37° C.
Bacillus anthracis = conditions: Muller-Hinton agar medium, 37° C.
[6] = test system: Proteus mirabilis IFM OM-9; assay: MIC, standard serial dilution method; conditions: Muller-Hinton agar medium, 37° C.
[7] = test system: Bacillus subtilis PCI 219; assay: MIC, standard serial dilution method; conditions: Muller-Hinton agar medium, 37° C.
Escherichia coli BE 1186 = assay: MIC, standard serial dilution method; conditions: Muller-Hinton agar medium, 37° C.
[8] = test system: Staphylococcus aureus TY-0428; assay: MIC, standard serial dilution method; conditions: Muller-Hinton agar medium, 37° C.
[9] = test system: Micrococcus luteus PIC 1001; assay: MIC, standard serial dilution method; conditions: Muller-Hinton agar medium, 37° C.
[10] = test system: Corynebacterium bovis 1810; assay: MIC, standard serial dilution method; conditions: Muller-Hinton agar medium, 37° C.
[11] = test system: Klebsiella pneumonia PCI 602; assay: MIC, standard serial dilution method; conditions: Klebsiella pneumonia PCI 602 (Table 2); Muller-Hinton agar medium, 37° C.
[12] = test system: Pseudomonas aeruginosa GN315; assay: MIC, standard serial dilution method; conditions: Muller-Hinton agar medium, 37° C.
Proteus vulgaris OX 19 = assay: MIC, standard serial dilution method; conditions: Muller-Hinton agar medium, 37° C.
[13] = test system: Staphylococcus aureus No. 17 (MRSA); assay: MIC, standard serial dilution method; conditions: Muller-Hinton agar medium, 37° C.
[14] = test system: Bacillus cereus ATCC 10702; assay: MIC, standard serial dilution method; conditions: Muller-Hinton agar medium, 37° C.
[15] = test system: Micrococcus luteus FDA 16; assay: MIC, standard serial dilution method; conditions: Muller-Hinton agar medium, 37° C.
Escherichia coli K-12 = assay: MIC, standard serial dilution method; conditions: Muller-Hinton agar medium, 37° C.
Shigella sonnei JS 11746 = assay: MIC, standard serial dilution method; conditions: Muller-Hinton agar medium, 37° C.
Protocol: (§1) The antibacterial activities of the amythiamicin amide derivative of the general formula (I) according to this invention are now concretely described. Compounds No. 1 to No. 11 according to this invention, which were respectively prepared in Examples 1 to 11 hereinafter given, were tested as the test compounds for their minimum inhibitory concentrations (MIC.) (μg/ml) against growth of a variety of test microorganisms by a standard serial dilution method. In the tests, the incubation medium used was Muller-Hinton agar medium and the incubation temperature was 37° C. The test results are shown as antibacterial spectra in the following Tables 2 and 3.

[16] = test system: Shigella clexnerl JS 11749; assay: MIC, standard serial dilution method; conditions: Muller-Hinton agar medium, 37° C.
Protocol: as §1

[17] = test system: Escherichia coli K-12 ML 1692; assay: MIC, standard serial dilution method; conditions: Muller-Hinton agar medium, 37° C.
Protocol: as §1

Candida albicans 3147 = assay: MIC, standard serial dilution method; conditions: Muller-Hinton agar medium, 37° C.
Serratia marcescens = assay: MIC, standard serial dilution method; conditions: Muller-Hinton agar medium, 37° C.
[18] = test system: Salmonella enteritidis 1891; assay: MIC, standard serial dilution method; conditions: Muller-Hinton agar medium, 37° C.
[19] = test system: Escherichia coli BEM 1121; assay: MIC, standard serial dilution method; conditions: Muller-Hinton agar medium, 37° C.
[20] = test system: Staphylococcus aureus MS 9610; assay: MIC, standard serial dilution method; conditions: Muller-Hinton agar medium, 37° C.
[21] = test system: Micrococcus luteus IFO 3333; assay: MIC, standard serial dilution method; conditions: Muller-Hinton agar medium, 37° C.
Escherichia coli BEM 11 = assay: MIC, standard serial dilution method; conditions: Muller-Hinton agar medium, 37° C.
[22] = test system: Bacillus subtilis NRRL B-558; assay: MIC, standard serial dilution method; conditions: Muller-Hinton agar medium, 37° C.
[23] = test system: Shigella dysenteria JS 11910; assay: MIC, standard serial dilution method; conditions: Muller-Hinton agar medium, 37° C.
[24] = test system: Providencia rettgeri GN 311; assay: MIC, standard serial dilution method; conditions: Muller-Hinton agar medium, 37° C.
[25] = test system: Pseudomonas aeruginosa A3; assay: MIC, standard serial dilution method; conditions: Muller-Hinton agar medium, 37° C.
[26] = test system: Mycobacterium smegmatis ATCC 607; assay: MIC, standard serial dilution method; conditions: Muller-Hinton agar medium, 37° C.

| Compound | Minimum growth inhibitory concentrations (MIC.) (Salmonella typhi T-63) [µg/mL] | Minimum growth inhibitory concentrations (MIC.) (Escherichia coli NIHJ) [µg/mL] | Minimum growth inhibitory concentrations (MIC.) [1] [µg/mL] | Minimum growth inhibitory concentrations (MIC.) [2] [µg/mL] | Minimum growth inhibitory concentrations (MIC.) [3] [µg/mL] | Minimum growth inhibitory concentrations (MIC.) [4] [µg/mL] | Minimum growth inhibitory concentrations (MIC.) [5] [µg/mL] | Minimum growth inhibitory concentrations (MIC.) (Bacillus anthracis) [µg/mL] | Minimum growth inhibitory concentrations (MIC.) [6] [µg/mL] | Minimum growth inhibitory concentrations (MIC.) [7] [µg/mL] | Minimum growth inhibitory concentrations (MIC.) (Escherichia coli BE 1186) [µg/mL] | Minimum growth inhibitory concentrations (MIC.) [8] [µg/mL] | Minimum growth inhibitory concentrations (MIC.) [9] [µg/mL] | Minimum growth inhibitory concentrations (MIC.) [10] [µg/mL] | Minimum growth inhibitory concentrations (MIC.) [11] [µg/mL] | Minimum growth inhibitory concentrations (MIC.) [12] [µg/mL] | Minimum growth inhibitory concentrations (MIC.) (Proteus vulgaris OX 19) [µg/mL] | Minimum growth inhibitory concentrations (MIC.) [13] [µg/mL] | Minimum growth inhibitory concentrations (MIC.) [14] [µg/mL] | Minimum growth inhibitory concentrations (MIC.) [15] [µg/mL] | other results |
| --- | --- | --- | --- | --- | --- | --- | --- | --- | --- | --- | --- | --- | --- | --- | --- | --- | --- | --- | --- | --- | --- |
| CNC(=O)CC1NC(=O)c2csc(n2)-c2ccc(-c3nc(C(=O)NCCCCCC(=O)OC)cs3)nc2-c2csc(n2)-c2csc(n2)C(C(C)C)NC(=O)CNC(=O)c2csc(n2)C(C(C)C)NC(=O)c2nc1sc2C (stereo not shown) [Compound No. 1] | > 100 | > 100 | > 100 | > 100 | > 100 | 50 | > 100 | 0.98 | > 100 | > 100 | > 100 | > 100 | 3.13 | > 100 | > 100 | > 100 | > 100 | > 100 | 3.13 | > 100 | Minimum growth inhibitory concentrations (MIC.) (Escherichia coli K-12): > 100 µg/mL; Minimum growth inhibitory concentrations (MIC.) (Shigella sonnei JS 11746): > 100 µg/mL; Minimum growth inhibitory concentrations (MIC.) [16]: > 100 µg/mL; Minimum growth inhibitory concentrations (MIC.) [17]: > 100 µg/mL; Minimum growth inhibitory concentrations (MIC.) (Candida albicans 3147): > 100 µg/mL; Minimum growth inhibitory concentrations (MIC.) (Serratia marcescens): > 100 µg/mL; Minimum growth inhibitory concentrations (MIC.) [18]: > 100 µg/mL; Minimum growth inhibitory concentrations (MIC.) [19]: > 100 µg/mL; Minimum growth inhibitory concentrations (MIC.) [20]: > 100 µg/mL; Minimum growth inhibitory concentrations (MIC.) [21]: > 100 µg/mL; Minimum growth inhibitory concentrations (MIC.) (Escherichia coli BEM 11): > 100 µg/mL; Minimum growth inhibitory concentrations (MIC.) [22]: > 100 µg/mL; Minimum growth inhibitory concentrations (MIC.) [23]: > 100 µg/mL; Minimum growth inhibitory concentrations (MIC.) [24]: > 100 µg/mL; Minimum growth inhibitory concentrations (MIC.) [25]: > 50 µg/mL |
| CNC(=O)CC1NC(=O)c2csc(n2)-c2ccc(-c3nc(C(=O)NCCCCCC(=O)O)cs3)nc2-c2csc(n2)-c2csc(n2)C(C(C)C)NC(=O)CNC(=O)c2csc(n2)C(C(C)C)NC(=O)c2nc1sc2C (stereo not shown) [Compound No. 2] | > 100 | > 100 | 0.2 | 0.2 | 0.1 | 0.1 | > 100 | < 0.03 | > 100 | 0.2 | > 100 | 0.2 | 0.1 | 0.31 | > 100 | > 100 | > 100 | 0.2 | 0.1 | 0.39 | Minimum growth inhibitory concentrations (MIC.) (Escherichia coli K-12): > 100 µg/mL; Minimum growth inhibitory concentrations (MIC.) (Shigella sonnei JS 11746): > 100 µg/mL; Minimum growth inhibitory concentrations (MIC.) [16]: > 100 µg/mL; Minimum growth inhibitory concentrations (MIC.) [17]: > 100 µg/mL; Minimum growth inhibitory concentrations (MIC.) (Candida albicans 3147): > 100 µg/mL; Minimum growth inhibitory concentrations (MIC.) (Serratia marcescens): > 100 µg/mL; Minimum growth inhibitory concentrations (MIC.) [18]: 6.25 µg/mL; Minimum growth inhibitory concentrations (MIC.) [19]: > 100 µg/mL; Minimum growth inhibitory concentrations (MIC.) [20]: 0.2 µg/mL; Minimum growth inhibitory concentrations (MIC.) [21]: 0.39 µg/mL; Minimum growth inhibitory concentrations (MIC.) (Escherichia coli BEM 11): > 100 µg/mL; Minimum growth inhibitory concentrations (MIC.) [22]: 1.56 µg/mL; Minimum growth inhibitory concentrations (MIC.) [23]: 3.13 µg/mL; Minimum growth inhibitory concentrations (MIC.) [24]: > 100 µg/mL; Minimum growth inhibitory concentrations (MIC.) [25]: > 50 µg/mL |
| CNC(=O)CC1NC(=O)c2csc(n2)-c2ccc(-c3nc(C(=O)NCCCN(C)CCCN)cs3)nc2-c2csc(n2)-c2csc(n2)C(C(C)C)NC(=O)CNC(=O)c2csc(n2)C(C(C)C)NC(=O)c2nc1sc2C (stereo not shown) [Compound No. 4] | > 100 | > 100 | > 100 | > 100 | 12.5 | 12.5 | > 100 | 3.12 | > 100 | > 100 | > 100 | > 100 | 3.12 | > 100 | > 100 | > 100 | > 100 | > 100 | 6.25 | > 100 | Minimum growth inhibitory concentrations (MIC.) [26]: > 100 µg/mL; Minimum growth inhibitory concentrations (MIC.) (Escherichia coli K-12): > 100 µg/mL; Minimum growth inhibitory concentrations (MIC.) (Shigella sonnei JS 11746): > 100 µg/mL; Minimum growth inhibitory concentrations (MIC.) [16]: > 100 µg/mL; Minimum growth inhibitory concentrations (MIC.) [17]: > 100 µg/mL; Minimum growth inhibitory concentrations (MIC.) (Candida albicans 3147): > 100 µg/mL; Minimum growth inhibitory concentrations (MIC.) (Serratia marcescens): > 100 µg/mL; Minimum growth inhibitory concentrations (MIC.) [18]: > 100 µg/mL; Minimum growth inhibitory concentrations (MIC.) [19]: > 100 µg/mL; Minimum growth inhibitory concentrations (MIC.) [20]: 50 µg/mL; Minimum growth inhibitory concentrations (MIC.) [21]: > 100 µg/mL; Minimum growth inhibitory concentrations (MIC.) (Escherichia coli BEM 11): > 100 µg/mL; Minimum growth inhibitory concentrations (MIC.) [22]: > 100 µg/mL; Minimum growth inhibitory concentrations (MIC.) [23]: > 100 µg/mL; Minimum growth inhibitory concentrations (MIC.) [24]: > 100 µg/mL; Minimum growth inhibitory concentrations (MIC.) [25]: > 100 µg/mL |
